Measured values published in PubChem BioAssay AID248 (DTP/NCI, 2004).
“And” between values parts separate entries of the source, which are not always exact repeats. Equal values may be shown once. Inconclusive results and toxic doses are left out.

Test system: L1210 leukemia ip in BDF1 mice, survival T/C
Assay: NCI In Vivo Anticancer Drug Screen. Data for tumor model L1210 Leukemia (intraperitoneal) in B6D2F1 (BDF1) mice
Settings: endpoint: mean survival time, higher = longer survival
Procedure, shortened: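 Read-out is survival time, reported as the treated-group measurement over the vehicle-control measurement.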

[1] = dose: 50.0 mg/kg/injection, schedule: Q01DX009 (ip), vehicle: Klucel (hydroxypropylcellulose) (HPC)
[2] = dose: 100.0 mg/kg/injection, schedule: Q01DX009 (ip), vehicle: Klucel (hydroxypropylcellulose) (HPC)
[3] = dose: 100.0 mg/kg/injection, schedule: Q04DX003 (ip), vehicle: Klucel (hydroxypropylcellulose) (HPC)
[4] = dose: 200.0 mg/kg/injection, schedule: Q01DX009 (ip), vehicle: Klucel (hydroxypropylcellulose) (HPC)
[5] = dose: 200.0 mg/kg/injection, schedule: Q04DX003 (ip), vehicle: Klucel (hydroxypropylcellulose) (HPC)
[6] = dose: 100.0 mg/kg/injection, schedule: Q01DX009 (ip), vehicle: saline with Tween-80
[7] = dose: 100.0 mg/kg/injection, schedule: Q04DX003 (ip), vehicle: saline with Tween-80
[8] = dose: 200.0 mg/kg/injection, schedule: Q01DX009 (ip), vehicle: saline with Tween-80
[9] = dose: 200.0 mg/kg/injection, schedule: Q04DX003 (ip), vehicle: saline with Tween-80
[10] = dose: 400.0 mg/kg/injection, schedule: Q04DX003 (ip), vehicle: saline with Tween-80
[11] = dose: 100.0 mg/kg/injection, schedule: Q01DX001 (ip), vehicle: saline
[12] = dose: 400.0 mg/kg/injection, schedule: Q01DX001 (ip), vehicle: saline
[13] = dose: 100.0 mg/kg/injection, schedule: Q04DX002 (ip), vehicle: saline
[14] = dose: 200.0 mg/kg/injection, schedule: Q04DX002 (ip), vehicle: saline
[15] = dose: 400.0 mg/kg/injection, schedule: Q01DX009 (ip), vehicle: Klucel (hydroxypropylcellulose) (HPC)
[16] = dose: 100.0 mg/kg/injection, schedule: Q01DX001 (ip), vehicle: carboxymethylcellulose (CMC)
[17] = dose: 200.0 mg/kg/injection, schedule: Q01DX001 (ip), vehicle: carboxymethylcellulose (CMC)
[18] = dose: 400.0 mg/kg/injection, schedule: Q01DX001 (ip), vehicle: carboxymethylcellulose (CMC)
[19] = dose: 100.0 mg/kg/injection, schedule: Q04DX003 (ip), vehicle: saline
[20] = dose: 200.0 mg/kg/injection, schedule: Q04DX003 (ip), vehicle: saline
[21] = dose: 400.0 mg/kg/injection, schedule: Q04DX003 (ip), vehicle: saline
[22] = dose: 100.0 mg/kg/injection, schedule: Q01DX009 (ip), vehicle: saline
[23] = dose: 200.0 mg/kg/injection, schedule: Q01DX009 (ip), vehicle: saline
[24] = dose: 400.0 mg/kg/injection, schedule: Q01DX009 (ip), vehicle: saline

With CCOC(=O)C(NC(=O)CCl)C(=O)OCC the T/C [1] was 91 % of control, the T/C [2] was 94 % of control and the T/C [3] was 100 % of control. The T/C [4] was 91 % of control and the T/C [5] was 91 % of control.
CC(C)(Cl)Cc1ccccc1 was tested, and the T/C [6] was 88 % of control, the T/C [7] was 103 % of control and the T/C [8] was 91 % of control. For the same compound, the T/C [9] was 105 % of control and the T/C [10] was 94 % of control.
In the case of Brc1ccc2[nH]c3c(c2c1)CCCC3, the T/C [11] was 87 % of control, the T/C (dose: 200.0 mg/kg/injection, schedule: Q01DX001 (ip), vehicle: saline) was 89 % of control and the T/C [12] was 98 % of control.
For Cc1cc([N+](=O)[O-])ccc1NC(=O)c1ccccc1, the T/C (dose: 100.0 mg/kg/injection, schedule: Q04DX003 (ip), vehicle: acetone) was 94 % of control, the T/C (dose: 200.0 mg/kg/injection, schedule: Q04DX003 (ip), vehicle: acetone) was 100 % of control and the T/C (dose: 400.0 mg/kg/injection, schedule: Q04DX003 (ip), vehicle: acetone) was 93 % of control.
In the case of Oc1c(Br)cc(Br)cc1/C=N/c1nc(-c2ccccc2)cs1.Oc1c(Br)cc(Br)cc1/C=N/c1nc(-c2ccccc2)cs1.[Co], the T/C [11] was 93 % of control and the T/C [12] was 86 % of control.
For Cc1nc(N)ncc1CCC1OCCO1, the T/C (dose: 25.0 mg/kg/injection, schedule: Q04DX002 (ip), vehicle: saline) was 91 % of control, the T/C (dose: 50.0 mg/kg/injection, schedule: Q04DX002 (ip), vehicle: saline) was 100 % of control and the T/C (dose: 100.0 mg/kg/injection, schedule: Q04DX002 (ip), vehicle: Klucel (hydroxypropylcellulose) (HPC)) was 175 % of control. The T/C [13] was 107 % of control and the T/C [14] was 103 % of control.
For CN1CC2(Cc3ccccc3)c3ccccc3NC2(NC(=O)CCl)C1=O (stereo unspecified), the T/C (dose: 25.0 mg/kg/injection, schedule: Q04DX002 (ip), vehicle: saline with Tween-80) was 87 % of control, the T/C (dose: 50.0 mg/kg/injection, schedule: Q04DX002 (ip), vehicle: saline with Tween-80) was 90 % of control and the T/C (dose: 100.0 mg/kg/injection, schedule: Q04DX002 (ip), vehicle: saline with Tween-80) was 91 % of control.
For Cc1cc2nc(CO)[nH]c2cc1C, the T/C [2] was 94 % of control, the T/C [3] was 95 % of control and the T/C [4] was 96 % of control. The T/C [5] was 93 % of control, the T/C [15] was 98 % of control and the T/C (dose: 400.0 mg/kg/injection, schedule: Q04DX003 (ip), vehicle: Klucel (hydroxypropylcellulose) (HPC)) was 92 % of control.
In the case of CC(C)(C)C1CCC(NC(=O)C(Cl)(Cl)Cl)CC1 (stereo unspecified), the T/C (dose: 6.0 mg/kg/injection, schedule: Q01DX009 (ip), vehicle: Klucel (hydroxypropylcellulose) (HPC)) was 100 % of control, the T/C (dose: 12.0 mg/kg/injection, schedule: Q01DX009 (ip), vehicle: Klucel (hydroxypropylcellulose) (HPC)) was 107 % of control and the T/C (dose: 25.0 mg/kg/injection, schedule: Q01DX009 (ip), vehicle: Klucel (hydroxypropylcellulose) (HPC)) was 96 % of control and 105 % of control. For the same compound, the T/C (dose: 25.0 mg/kg/injection, schedule: Q04DX003 (ip), vehicle: Klucel (hydroxypropylcellulose) (HPC)) was 94 % of control, the T/C [1] was 86 % of control and the T/C (dose: 50.0 mg/kg/injection, schedule: Q04DX003 (ip), vehicle: Klucel (hydroxypropylcellulose) (HPC)) was 97 % of control. The T/C [3] was 96 % of control.
CC(=O)Nc1ccc(S(C)(=O)=O)cc1I was tested, and the T/C [16] was 93 % of control, the T/C [17] was 96 % of control and the T/C [18] was 91 % of control.
In the case of c1ccc2c[n+](C[n+]3ccc4ccccc4c3)ccc2c1, the T/C [19] was 103 % of control and the T/C [20] was 105 % of control.
For O=C(CCl)Nc1ncn[nH]1, the T/C (dose: 75.0 mg/kg/injection, schedule: Q01DX001 (ip), vehicle: carboxymethylcellulose (CMC)) was 101 % of control, the T/C (dose: 150.0 mg/kg/injection, schedule: Q01DX001 (ip), vehicle: carboxymethylcellulose (CMC)) was 97 % of control and the T/C (dose: 300.0 mg/kg/injection, schedule: Q01DX001 (ip), vehicle: carboxymethylcellulose (CMC)) was 107 % of control.
CCC(=O)c1ccc(O)c(C)c1 was tested, and the T/C (dose: 55.5 mg/kg/injection, schedule: Q01DX Z (ip), vehicle: methylcellulose (MC)) was 98 % of control, the T/C (dose: 83.3 mg/kg/injection, schedule: Q01DX Z (ip), vehicle: methylcellulose (MC)) was 96 % of control and the T/C (dose: 125.0 mg/kg/injection, schedule: Q01DX Z (ip), vehicle: methylcellulose (MC)) was 102 % of control. The T/C (dose: 187.5 mg/kg/injection, schedule: Q01DX Z (ip), vehicle: methylcellulose (MC)) was 103 % of control.
In the case of COc1ccc(-n2c(=O)c(N=Nc3ccccc3OC)c(O)n(-c3ccccc3C)c2=S)cc1, the T/C (dose: 100.0 mg/kg/injection, schedule: Q01DX001 (ip), vehicle: Klucel (hydroxypropylcellulose) (HPC)) was 98 % of control and the T/C (dose: 200.0 mg/kg/injection, schedule: Q01DX001 (ip), vehicle: Klucel (hydroxypropylcellulose) (HPC)) was 101 % of control.
For CC1CN(c2ccccc2)NC1=O (stereo unspecified), the T/C [19] was 97 % of control, the T/C [20] was 95 % of control and the T/C [21] was 97 % of control.
With O=C(NCc1ccccc1)C1C2C=CC(C2)C1C(=O)NCc1ccccc1 (stereo unspecified) the T/C [7] was 96 % of control, the T/C [9] was 91 % of control and the T/C [10] was 91 % of control.
For CO/N=C1\C(C)(C)C(C)(C)C(C)(C)C1(C)SS(=O)(=O)O (stereo unspecified), the T/C [13] was 90 % of control, the T/C [14] was 101 % of control and the T/C (dose: 400.0 mg/kg/injection, schedule: Q04DX002 (ip), vehicle: saline) was 107 % of control.
For CC[N+]12CC=C3COC(=O)C(C)(O)C(C)(O)C(C)C(=O)OC(CC1)C32 (stereo unspecified), the T/C (dose: 50.0 mg/kg/injection, schedule: Q01DX009 (ip), vehicle: saline) was 92 % of control, the T/C [22] was 97 % of control and the T/C [23] was 92 % of control.
In the case of CCCCCCC(O)CCCCCCCCCCC(=O)OC (stereo unspecified), the T/C [6] was 98 % of control, the T/C [8] was 88 % of control and the T/C (dose: 400.0 mg/kg/injection, schedule: Q01DX009 (ip), vehicle: saline with Tween-80) was 92 % of control.
For O=Cc1ccc(O)cn1, the T/C [19] was 92 % of control, the T/C [20] was 87 % of control and the T/C [21] was 92 % of control.
In the case of O=C(COc1ccc(Cl)cc1Cl)OCCOCCOCCOCCOCCOCCOCCOCCOCCOCCOCCOCCOCCO, the T/C [2] was 101 % of control, the T/C [4] was 101 % of control and the T/C [15] was 98 % of control.
With CCCCCCCCC1CCCCC1 the T/C (dose: 50.0 mg/kg/injection, schedule: Q04DX002 (sc), vehicle: olive oil, sesame oil, peanut oil) was 105 % of control, the T/C (dose: 100.0 mg/kg/injection, schedule: Q04DX002 (sc), vehicle: olive oil, sesame oil, peanut oil) was 109 % of control and the T/C (dose: 200.0 mg/kg/injection, schedule: Q04DX002 (sc), vehicle: olive oil, sesame oil, peanut oil) was 109 % of control.
For Nc1nc(-c2ccccc2)c2ccccc2n1, the T/C [16] was 101 % of control, the T/C [17] was 93 % of control and the T/C [18] was 104 % of control.
In the case of Nc1nc(Nc2ccccc2)nc(C(=O)O)n1, the T/C [22] was 92 % of control, the T/C [19] was 110 % of control and the T/C [23] was 106 % of control. The T/C [20] was 101 % of control, the T/C [24] was 115 % of control and the T/C [21] was 106 % of control.
CC(C)N=C(NC(C)C)N1CC1 was tested, and the T/C (dose: 10.0 mg/kg/injection, schedule: Q01DX009 (ip), vehicle: saline) was 106 % of control, the T/C (dose: 20.0 mg/kg/injection, schedule: Q01DX001 (ip), vehicle: saline) was 104 % of control and the T/C (dose: 20.0 mg/kg/injection, schedule: Q01DX009 (ip), vehicle: saline) was 105 % of control. For the same compound, the T/C (dose: 40.0 mg/kg/injection, schedule: Q01DX001 (ip), vehicle: saline) was 104 % of control and the T/C (dose: 40.0 mg/kg/injection, schedule: Q01DX009 (ip), vehicle: saline) was 100 % of control.
In the case of c1ccc2c(c1)C1CC(N3CCCCC3)C2c2ccccc21 (stereo unspecified), the T/C [22] was 102 % of control, the T/C (dose: 100.0 mg/kg/injection, schedule: Q04DX003 (ip), vehicle: alcohol) was 95 % of control and the T/C (dose: 200.0 mg/kg/injection, schedule: Q04DX003 (ip), vehicle: alcohol) was 95 % of control. The T/C [24] was 100 % of control and the T/C (dose: 400.0 mg/kg/injection, schedule: Q04DX003 (ip), vehicle: alcohol) was 93 % of control.
